Laboratory results as given in ChEMBL document CHEMBL3351844, “Synthesis and evaluation of iminocoumaryl and coumaryl derivatized glycosides as galectin antagonists” (Bioorg Med Chem Lett, 2014).
Calls of active or inactive are those of the source. No cut-off for these calls is given here.

Columns and labels:
[1] = molecular target: Galectin-9 (Homo sapiens, UniProt O00182); assay: Antagonist activity against human galectin 9 N-terminal domain by fluorescence polarization assay
[2] = molecular target: Galectin-3 (Homo sapiens, UniProt P17931); assay: Antagonist activity against human galectin 3 by fluorescence polarization assay
[3] = molecular target: Galectin-7 (Homo sapiens, UniProt P47929); assay: Antagonist activity against human galectin 7 by fluorescence polarization assay
[4] = molecular target: T1, Galectin-8 (Homo sapiens, UniProt O00214); assay: Antagonist activity against human galectin 8 N-terminal domain by fluorescence polarization assay
T1 sequence (O00214 whole entry): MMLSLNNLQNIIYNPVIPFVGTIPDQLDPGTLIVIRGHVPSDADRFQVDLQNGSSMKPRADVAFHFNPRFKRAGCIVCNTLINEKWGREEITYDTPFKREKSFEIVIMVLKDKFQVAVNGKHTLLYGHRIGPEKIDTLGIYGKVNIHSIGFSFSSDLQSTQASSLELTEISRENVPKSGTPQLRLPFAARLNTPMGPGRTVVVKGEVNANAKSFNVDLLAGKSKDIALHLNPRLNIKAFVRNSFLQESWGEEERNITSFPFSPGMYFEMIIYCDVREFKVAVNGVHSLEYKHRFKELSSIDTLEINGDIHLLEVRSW

[5] = molecular target: T2, Galectin-1 (Homo sapiens, UniProt P09382); assay: Antagonist activity against human galectin 1 by fluorescence polarization assay
[6] = molecular target: T2, Galectin-1; details: 10 mM
Description: Antagonist activity against human galectin 1 at 10 mM by fluorescence polarization assay

Sequence of Galectin-9 (O00182 whole entry, the tested form may be a part): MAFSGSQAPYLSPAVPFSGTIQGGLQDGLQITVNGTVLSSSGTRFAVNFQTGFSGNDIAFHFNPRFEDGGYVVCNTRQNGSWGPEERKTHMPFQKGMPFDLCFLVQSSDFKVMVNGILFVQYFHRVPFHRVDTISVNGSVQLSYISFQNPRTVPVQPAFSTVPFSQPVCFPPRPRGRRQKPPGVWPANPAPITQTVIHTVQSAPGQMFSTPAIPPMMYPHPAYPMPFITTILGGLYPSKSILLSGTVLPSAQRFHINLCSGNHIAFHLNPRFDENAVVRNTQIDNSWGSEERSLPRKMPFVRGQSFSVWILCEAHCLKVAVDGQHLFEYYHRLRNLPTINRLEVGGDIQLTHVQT
Sequence of Galectin-7 (P47929 whole entry, the tested form may be a part): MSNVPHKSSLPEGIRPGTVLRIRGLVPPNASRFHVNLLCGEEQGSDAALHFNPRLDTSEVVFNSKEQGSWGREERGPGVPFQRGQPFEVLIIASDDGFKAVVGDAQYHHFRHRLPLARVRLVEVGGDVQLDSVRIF
Sequence of Galectin-3 (P17931 whole entry): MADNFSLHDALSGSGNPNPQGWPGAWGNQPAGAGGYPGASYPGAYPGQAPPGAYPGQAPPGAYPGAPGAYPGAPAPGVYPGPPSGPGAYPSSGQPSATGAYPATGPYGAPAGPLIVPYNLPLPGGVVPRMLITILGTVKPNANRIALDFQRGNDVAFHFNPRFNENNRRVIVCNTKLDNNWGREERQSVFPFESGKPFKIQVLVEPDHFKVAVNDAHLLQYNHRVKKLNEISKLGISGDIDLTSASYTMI
T2 sequence (P09382 whole entry): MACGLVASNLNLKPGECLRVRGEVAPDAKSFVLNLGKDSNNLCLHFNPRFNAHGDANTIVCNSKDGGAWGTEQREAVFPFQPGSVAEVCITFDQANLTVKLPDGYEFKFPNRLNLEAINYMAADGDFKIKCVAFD

SMILES	Kd [1]	Kd [2]	Kd [4]	Kd ([5]; read-out: Kd)	Kd ([3]; read-out: Kd)	Kd [3]	Kd [5]	inhibition [6]
Cc1ccc(S(=O)(=O)/N=c2\oc3ccccc3cc2CO[C@@H]2O[C@H](CO)[C@@H](O[C@@H]3O[C@H](CO)[C@H](O)[C@H](O)[C@H]3O)[C@H](O)[C@H]2O)cc1	80 µM	130 µM	140 µM	500 µM	–	Not Active	–	–
CO[C@@H]1O[C@H](CO)[C@@H](O[C@@H]2O[C@H](CO)[C@H](O)[C@H](O)[C@H]2O)[C@H](O)[C@H]1O	23 µM	220 µM	62 µM	190 µM	110 µM	–	–	–
CO[C@H]1O[C@H](CO)[C@H](O)[C@H](OCc2cc3ccccc3o/c2=N\S(=O)(=O)c2ccc(C)cc2)[C@H]1OC(C)=O	36 µM	97 µM	170 µM	5100 µM	180 µM	–	–	–
CS[C@@H]1O[C@H](CO)[C@H](O)[C@H](NC(=O)c2ccc(C)cc2)[C@H]1O	1500 µM	–	> 2000 µM	980 µM	> 2000 µM	–	–	–
Cc1ccc(S(=O)(=O)/N=c2\oc3ccccc3cc2CO[C@@H]2O[C@H](CO)[C@H](O)[C@H](O)[C@H]2O)cc1	7100 µM	10000 µM	3900 µM	3600 µM	–	Not Active	–	–
CS[C@@H]1O[C@H](CO)[C@H](O)[C@H](n2cc(C(=O)NCc3ccccc3)nn2)[C@H]1O	> 5000 µM	–	–	–	–	–	Not Active	–
CO[C@H]1O[C@H](CO)[C@H](O)[C@H](O)[C@H]1O	2800 µM	–	–	–	11000 µM	–	–	inactive

Continued, in another order:

Kd [1]	Kd [2]	Kd [4]	Kd ([5]; read-out: Kd)	Kd ([3]; read-out: Kd)	SMILES	Kd [3]	Kd [5]	inhibition [6]
76 µM	81 µM	390 µM	650 µM	1100 µM	CO[C@H]1O[C@H](CO)[C@H](O)[C@H](OCc2cc3ccccc3o/c2=N\S(=O)(=O)c2ccccc2)[C@H]1O	–	–	–
180 µM	78 µM	180 µM	1900 µM	850 µM	CO[C@H]1O[C@H](CO)[C@H](O)[C@H](OCc2cc3ccccc3oc2=O)[C@H]1O	–	–	–
140 µM	120 µM	250 µM	1700 µM	1700 µM	CO[C@H]1O[C@H](CO)[C@H](O)[C@H](OCc2cc3ccccc3o/c2=N\S(=O)(=O)c2ccc(C)cc2)[C@H]1O	–	–	–
45 µM	130 µM	270 µM	4500 µM	230 µM	CO[C@H]1O[C@H](CO)[C@H](O)[C@H](OCc2cc3ccccc3o/c2=N\S(=O)(=O)c2ccccc2)[C@H]1OC(C)=O	–	–	–
